This is an account of results in patent US8008487B2, “Substituted thieno[2,3-D]pyrimidines as fungicides” (priority 2004, dated 2011).

Read-outs that look alike come from different tables or passages of the source.

What all share (type): in vivo
Assay [1] relates to Phytophthora infestans. The assay is described as follows: whole plant or invertebrate. The settings on record: for pest or weed control at 200 ppm: foliar, read-out: PHYTIN percent control of disease, 200 ppm on foliage, tomato, one-day protectant test.
In assay [2] the test system is Erysiphe cichoracaerum. The assay is described as follows: Cucumber Powdery Mildew (ERYSCI), whole-plant fungicide test. The settings on record: 200 ppm on foliage, one-day protectant test; for pest or weed control at 200 ppm: Erysiphe, foliar, 24 h, read-out: ERYSCI percent control of disease.
Assay [3] has as its system Septoria tritici. The assay is described as follows: Speckled Leaf Blotch of Wheat (SEPTTR), whole-plant fungicide test. To be noted: Zymoseptoria tritici, read-out: SEPTTR percent control of disease; for pest or weed control at 100 ppm: 100 ppm (footnote a); for pest or weed control at 75 ppm: 75 ppm (footnote d).
In assay [4] the test system is Puccinia recondita tritici. Put plainly: Leaf Rust of Wheat (PUCCRT), whole-plant fungicide test. To be noted: 200 ppm on foliage, one-day protectant test; for pest or weed control at 200 ppm: Puccinia recondita, foliar, 24 h, read-out: PUCCRT percent control of disease.
Assay [5] deals with Magnaporthe grisea. The assay is described as follows: whole plant or invertebrate. The settings on record: for pest or weed control at 200 ppm: foliar, read-out: PYRIOR percent control of disease, 200 ppm on foliage, rice, one-day protectant test.
For assay [6], the system named is Colletotricum lagenarium. The assay is described as follows: Cucumber Anthracnose (COLLLA), whole-plant fungicide test. The settings on record: one-day protectant test; for pest or weed control at 200 ppm: foliar.
Assay [7] relates to Leptosphaeria nodorum. The assay is described as follows: Glume Blotch of Wheat (LEPTNO), whole-plant fungicide test. The settings on record: Parastagonospora nodorum, read-out: LEPTNO percent control of disease; for pest or weed control at 200 ppm: foliar, 24 h, 200 ppm on foliage, one-day protectant test.
Assay [8] deals with Cochliobolus sativus. The assay is described as follows: Spot Blotch of Wheat (COCHSA), whole-plant fungicide test. To be noted: Bipolaris sorokiniana, foliar, 24 h, 200 ppm on foliage, one-day protectant test, read-out: COCHSA percent control of disease. The method, then: The activity of the compounds as effective fungicides was determined by applying the compounds to plants and observing control of fungal disease. The compounds were formulated at 200 ppm in 10 vol. percent acetone plus 90 vol. percent Triton X water (deionized water 99.99 wt. percent+0.01 wt. percent Triton X100), giving a “formulated test compound.” In a few cases, compounds were formulated at 100, 75 or 8.3 ppm rather than 200 ppm in 10 vol. percent acetone plus 90 vol. percent Triton X water (deionized water 99.99 wt. percent+0.01 wt. percent Triton X100), giving a ‘formulated test compound’. The compounds were tested for ability to control plant diseases in a 1-day protectant test (1DP) or a 2-day curative test (2DC). Formulated test compounds were applied to plants using a turn table sprayer fitted with two opposing air atomization nozzles which delivered approximately 1500 L/ha of spray volume. Plants were inoculated with spores of the fungus the next day (1DP), then incubated in an environment conducive to disease development. In a few cases, the compounds were tested for ability to control plant disease in a two-day curative test. Plants were inoculated with spores of the fungus two days prior to compound application, and incubated in an environment conducive to disease development both before and after compound application (2DC). For all types of tests, disease severity was evaluated 4 to 28 days later, depending on the speed of disease development.
Each pot contained 3-8 seedlings. These plants were sprayed until wet with the formulated test compound. On the following day, the leaves were inoculated with an aqueous spore suspension of Cochliobolus sativus and the plants were kept in high humidity for one to two days to permit spores to germinate and infect the leaf. The plants were then transferred to a greenhouse until disease developed on untreated control plants.
The following table presents the activity of typical compounds of the present invention when evaluated in these experiments. The effectiveness of the test compounds in controlling disease was determined by assessing the severity of disease on treated plants, then converting the severity to percent control based on the level of disease on untreated, inoculated plants.
TABLE 4: Activity of compounds as fungicides. Data are the level at which the given disease was controlled when the given compound was applied to the foliage of the plant at 200 ppm. In a few cases (noted in the table) the compound was applied to the plant at 100, 75 or 8.3 ppm. The plant was inoculated with the fungus one day after treatment. In a few cases (noted in the table) the plant was inoculated with the fungus two days before treatment.

The mark [9] stands for this setting: Phytophthora infestans, in Solanum lycopersicum, 24 h.
Setting [10] is: Pyricularia oryzae, in Oryza sativa, 24 h.
Where [11] appears, read: Cucumis sativus, 24 h, 200 ppm on foliage, read-out: COLLLA percent control of disease.

As to `FC(F)(F)COc1ccc(CCNc2ncnc3scc(Cl)c23)cn1` [Compound 5a], the pest or weed control at 200 ppm in assay [1] (setting [9]) fell in the range of 80 to 100%; in assay [2], 80 to 100%; in assay [4], 80 to 100%; in assay [5] (setting [10]), 80 to 100%; in assay [6] (setting [11]), 50 to 79%; in assay [7] it was 80 to 100%. For the same compound, the pest or weed control at 100 ppm in assay [3] (24 h, one-day protectant test) lay in the range of 80 to 100%.
Take `CC(=O)COc1ccc(CCNc2ncnc3scc(Cl)c23)cc1` [Compound 6a]: the pest or weed control at 200 ppm in assay [1] (setting [9]) was 80 to 100%; in assay [2] it was 0 to 49%; in assay [4], 80 to 100%; in assay [5] (setting [10]) it was 80 to 100%; in assay [6] (setting [11]), 50 to 79%; in assay [7] it was 50 to 79%. Also, the pest or weed control at 75 ppm in assay [3] (24 h, one-day protectant test) was in the range of 0 to 49%.
As for `O=C(Oc1ccc(CCNc2ncnc3scc(Cl)c23)cc1)C1(F)C(F)(F)C(F)(F)C(F)(F)C(F)(F)C1(F)F` [Compound 9a, 1,2,2,3,3,4,4,5,5,6,6-undecafluoroclohexanecarboxylic Acid 4-[2-(5-chlorothieno[2,3-d]pyrimidin-4-ylamino)ethyl]phenyl Ester], the pest or weed control at 200 ppm is 0 to 49% in assay [1] (setting [9]); 0 to 49% in assay [2]; 80 to 100% in assay [4]; 80 to 100% in assay [5] (setting [10]); 0 to 49% in assay [6] (setting [11]); 0 to 49% in assay [7]. Further, the pest or weed control at 75 ppm in assay [3] (24 h, one-day protectant test) was in the range of 80 to 100%.
Regarding `CC(C)(C)OC(=O)Nc1ccc(CCNc2ncnc3scc(Cl)c23)cc1` [Compound 10a, {4-[2-(5-chlorothieno[2,3-d]pyrimidin-4-ylamino)ethyl]phenyl}carbamic Acid t-butyl Ester], the pest or weed control at 200 ppm in assay [2], in assay [4], in assay [6] (setting [11]) and in assay [7] was 0 to 49% throughout. The pest or weed control at 75 ppm in assay [3] (24 h, one-day protectant test) is 80 to 100%. Besides, the pest or weed control at 8.3 ppm in assay [5] (Pyricularia oryzae, in Oryza sativa, 24 h, read-out: PYRIOR percent control of disease, 8.3 ppm (footnote c), rice, one-day protectant test) was 80 to 100%.
As to `CC(Nc1ncnc2scc(Cl)c12)c1ccc(F)nc1` (stereo not shown) [Compound 40], the pest or weed control at 200 ppm fell in the range of 50 to 79% in assay [8], 80 to 100% in assay [4] and 50 to 79% in assay [7].
Regarding `CCOc1csc2ncnc(N[C@@H](C)c3ccc(OC)cc3)c12` [Compound 43], the pest or weed control at 200 ppm is 0 to 49% in assay [1] (setting [9]); 0 to 49% in assay [8]; 50 to 79% in assay [4]; 50 to 79% in assay [5] (setting [10]); 0 to 49% in assay [6] (setting [11]); 0 to 49% in assay [7].
Take `COc1ccc(C(C)Nc2ncnc3scc(C#N)c23)cc1` (stereo not shown) [Compound 49, 5-Cyano-N-[1-(4-methoxyphenyl)ethyl]thieno[2,3-d]pyrimidin-4-amine]: the pest or weed control at 200 ppm in assay [1] (setting [9]) lay in the range of 0 to 49%; in assay [8], 50 to 79%; in assay [4], 80 to 100%; in assay [5] (setting [10]) it was 80 to 100%; in assay [6] (setting [11]), 0 to 49%; in assay [7], 0 to 49%.
Regarding `CCOC(=O)c1csc2ncnc(NC(C)c3ccc(OC)cc3)c12` (stereo not shown) [Compound 50, 5-Carboethoxy-N-[1-(4-methoxyphenyl)ethyl]thieno[2,3-d]pyrimidin-4-amine], the pest or weed control at 200 ppm in assay [1] (setting [9]) was in the range of 0 to 49%; in assay [8], 50 to 79%; in assay [4] it was 0 to 49%; in assay [5] (setting [10]), 0 to 49%; in assay [6] (setting [11]), 0 to 49%; in assay [7] it was 0 to 49%.
As for `OCC(Nc1ncnc2scc(Cl)c12)c1ccccc1` (stereo not shown) [Compound 69], the “PHYTIN percent control of disease” value in assay [1] (200 ppm on foliage, tomato, one-day protectant test) was “* (* is 0-49 percent control of disease)”. The “ERYSCI percent control of disease” value in assay [2] is on record as “* (* is 0-49 percent control of disease)”. Besides, the pest or weed control at 100 ppm in assay [3] (48 h, two-day curative test (footnote b)) fell in the range of 50 to 79%; in assay [7] (48 h, 100 ppm (footnote a), two-day curative test (footnote b)) it was 50 to 79%. Besides, the “PUCCRT percent control of disease” value in assay [4] is on record as “* (* is 0-49 percent control of disease)”. Besides, the “PYRIOR percent control of disease” value in assay [5] (200 ppm on foliage, rice, one-day protectant test) is “* (* is 0-49 percent control of disease)”. Moreover, the “COLLLA percent control of disease” value in assay [6] (200 ppm on foliage) was “* (* is 0-49 percent control of disease)”.
Take `CC(Nc1ncnc2scc(Cl)c12)C1CC1COCC(F)(F)F` (stereo not shown) [Compound 87]: the pest or weed control at 200 ppm lay in the range of 0 to 49% in assay [1] (setting [9]); 80 to 100% in assay [2]; 80 to 100% in assay [4]; 80 to 100% in assay [5] (setting [10]); 0 to 49% in assay [6] (setting [11]); 0 to 49% in assay [7].
For the compound `COc1ccc(C(C)Nc2ncnc3scc(SC)c23)cc1` (stereo not shown) [Compound 88, 5-Methylthio-N-[1-(4-methoxyphenyl)ethyl]thieno[2,3-d]pyrimidin-4-amine], the pest or weed control at 200 ppm fell in the range of 0 to 49% in assay [1] (setting [9]); 0 to 49% in assay [2]; 80 to 100% in assay [4]; 80 to 100% in assay [5] (setting [10]); 0 to 49% in assay [6] (setting [11]); 0 to 49% in assay [7].
As for `COc1ccc(C(C)Nc2ncnc3scc(S(C)(=O)=O)c23)cc1` (stereo not shown) [Compound 89, 5-Methanesulfonyl-N-[1-(4-methoxyphenyl)ethyl]thieno[2,3-d]pyrimidin-4-amine], the pest or weed control at 200 ppm is 0 to 49% in assay [1] (setting [9]); 0 to 49% in assay [2]; 0 to 49% in assay [4]; 50 to 79% in assay [5] (setting [10]); 0 to 49% in assay [6] (setting [11]); 0 to 49% in assay [7].
As for `CC(Nc1ncnc2scc(Cl)c12)c1cnc(OCC(F)(F)F)s1` (stereo not shown) [Compound 90], the pest or weed control at 200 ppm lay in the range of 0 to 49% in assay [1] (setting [9]); 80 to 100% in assay [2]; 80 to 100% in assay [4]; 80 to 100% in assay [5] (setting [10]); 0 to 49% in assay [6] (setting [11]); 50 to 79% in assay [7].
As to `CC(Nc1ncnc2scc(Cl)c12)c1ccc(C(C)(C)C)cc1` (stereo not shown) [Compound 91], the pest or weed control at 100 ppm was in the range of 50 to 79% in assay [1] (Phytophthora infestans, in Solanum lycopersicum, 24 h, read-out: PHYTIN percent control of disease, 100 ppm (footnote a), tomato, one-day protectant test) and 50 to 79% in assay [6] (Cucumis sativus, 24 h, 100 ppm (footnote a), read-out: COLLLA percent control of disease). Besides, the pest or weed control at 200 ppm in assay [2], in assay [4], in assay [5] (setting [10]) and in assay [7] was 80 to 100% throughout.
As for `Clc1csc2ncnc(N3CCOCC3c3ccccc3)c12` (stereo not shown) [Compound 92], the pest or weed control at 200 ppm in assay [1] (setting [9]) lay in the range of 0 to 49%; in assay [2], 0 to 49%; in assay [4] it was 0 to 49%; in assay [5] (setting [10]), 80 to 100%; in assay [6] (setting [11]), 0 to 49%; in assay [7], 0 to 49%.
Turning to `Clc1csc2ncnc(N3CCCCC3c3ccccc3)c12` (stereo not shown) [Compound 93], the pest or weed control at 200 ppm in assay [1] (setting [9]) was in the range of 0 to 49%; in assay [2] it was 0 to 49%; in assay [4], 0 to 49%; in assay [5] (setting [10]), 80 to 100%; in assay [6] (setting [11]), 0 to 49%; in assay [7], 0 to 49%.
